Experimental findings from patent US20250195513A1, “DEGRADATION OF IRAK4 BY CONJUGATION OF IRAK4 INHIBITORS WITH E3 LIGASE LIGAND AND METHODS OF USE” (BeiGene, Ltd., priority 2022, published 2025) are described below.

What all share (type): cell-based
Test [1] has as its target T1, IRAK4 (Homo sapiens, UniProt Q9NWZ3).
T1 construct: endogenous in cells; host or cells: Karpas299
T1 sequence (Q9NWZ3 1-460): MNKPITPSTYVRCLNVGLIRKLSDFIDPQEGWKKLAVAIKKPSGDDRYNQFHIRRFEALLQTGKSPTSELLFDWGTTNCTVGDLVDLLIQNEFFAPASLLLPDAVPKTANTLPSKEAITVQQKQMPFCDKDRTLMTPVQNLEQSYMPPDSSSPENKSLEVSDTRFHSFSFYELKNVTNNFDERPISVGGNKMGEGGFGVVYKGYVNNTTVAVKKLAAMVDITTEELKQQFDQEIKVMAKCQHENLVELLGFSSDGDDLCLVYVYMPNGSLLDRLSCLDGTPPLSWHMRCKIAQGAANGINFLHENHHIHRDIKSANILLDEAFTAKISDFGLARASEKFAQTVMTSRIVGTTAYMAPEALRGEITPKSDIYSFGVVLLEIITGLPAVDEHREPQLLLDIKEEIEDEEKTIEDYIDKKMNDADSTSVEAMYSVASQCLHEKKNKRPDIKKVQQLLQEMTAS
The experiment in a line: IRAK4 Degradation Assay with Human Serum (Karpas299, HTRF/TR-FRET). The settings on record: Karpas-299 in human serum, 24 hrs treatment; for DC50: read-out: IRAK4 degradtion with human serum assay DC50; for Dmax: read-out: IRAK4 degradtion with human serum assay Dmax (%). In outline:
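Remaining IRAK4 measured by TR-FRET immunoassay on lysates of Karpas299 cells exposed 24 h to compound dilution series in human serum AB. DC50 derived from a Hill-slope fit of % degradation versus concentration.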

Test [2] addresses T1, IRAK4. The test is described as follows: IRAK4 Degradation Assay (Karpas299, HTRF/TR-FRET). The settings on record: Karpas-299 cells; for Dmax: maximum percentage of degradation. In outline: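 Compound potency as DC50 (IC50) came from four-parameter fits of percent IRAK4 degradation. IRAK4 was measured by HTRF (665/620 nm) in lysates of Karpas299 cells seeded at 0.2 million per well. Cells had been treated with compound dilutions for 5 or 24 h.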
(TR-FRET usually uses a lanthanide donor and a delayed reading to cut background.)

Test [3] concerns TNF-α production in THP-1 cells. The test is described as follows: TNF-α Production Assay in THP-1 Cells (LPS stimulated). The settings on record: Homo sapiens, THP-1, 24 h; for Emax: maximum inhibition, read-out: TNF-α (THP-1) 24 h IMax. As to the method: THP-1 cells maintained in RPMI 1640 medium (Thermo Scientific) supplemented with 10% FBS (Thermo Scientific), 100 units/mL penicillin and 0.1 mg/mL streptomycin (Thermo Scientific) were seeded into 96-well plates at the density of 0.2 million cells per well and then treated with compounds for 24 h. Lipopolysaccharide was subsequently added at the final concentration of 1 μg/mL for 24 h. Culture supernatant was collected for measurement of TNF-α concentration by a TR-FRET-based method (Degorce, François, et al. Current chemical genomics. 2009, 3: 22) as described by the manufacturer manual (Cisbio). FRET signals were measured using a PHERAstar FSX reader (BMG Labtech).

The mark [4] stands for this setting: 24 h treatment, read-out: IRAK4 in Karpas-299 (24 h) Dmax (%).
Where [5] appears, read: 24 h treatment, read-out: IRAK4 in Karpas-299 (24 h) DC50.
The mark [6] stands for this setting: 5 h treatment, read-out: IRAK4 in Karpas-299 (5 h) Dmax (%).
[7] abbreviates: 5 h treatment, read-out: IRAK4 in Karpas-299 (5 h) DC50.

In the case of `COC[C@@H]1CN([C@H]2CC[C@H](n3cc4cc(NC(=O)c5ccc6cc(C#N)cnn56)c(C(C)(C)O)cc4n3)CC2)CCN1C(=O)C1CN(c2cc(F)c([C@H]3CCC(=O)NC3=O)c(F)c2)C1` [Example 186, 3-cyano-N-(2-((1S,4r)-4-((S)-4-(1-(4-((R)-2,6-dioxopiperidin-3-yl)-3,5-difluorophenyl)azetidine-3-carbonyl)-3-(methoxymethyl)piperazin-1-yl)cyclohexyl)-6-(2-hydroxypropan-2-yl)-2H-indazol-5-yl)pyrrolo[1,2-b]pyridazine-7-carboxamide], the half-maximal degradation concentration (DC50) (in general, the concentration giving 50% degradation) at IRAK4 [1] was determined as 9.2 nM; on IRAK4 [2] (setting [5]), 0.9 nM. Besides, the Dmax (commonly the greatest extent of degradation seen) at IRAK4 [1] stood at 101%; on IRAK4 [2] (setting [4]) it was 99%. In addition, the midpoint of inhibition in test [3], the IC50, lay at 29 nM. Moreover, the Emax in test [3] was found to be 89%.
With `CC(C)(O)c1cc2nn([C@H]3CC[C@H](N4CCN(C5CCN(c6ccc(C7CCC(=O)NC7=O)cc6)CC5)CC4)CC3)cc2cc1NC(=O)c1ccc2cc(C#N)cnn12` (stereo partly drawn) [Example 195, 3-cyano-N-(2-((1r,4r)-4-(4-(1-(4-(2,6-dioxopiperidin-3-yl)phenyl)piperidin-4-yl)piperazin-1-yl)cyclohexyl)-6-(2-hydroxypropan-2-yl)-2H-indazol-5-yl)pyrrolo[1,2-b]pyridazine-7-carboxamide], the DC50 on IRAK4 [1] worked out at 10 nM; at IRAK4 [2] (setting [7]), 13 nM; at IRAK4 [2] (setting [5]) it was 2.8 nM. In addition, the values for the Dmax at IRAK4 [1], on IRAK4 [2] (setting [6]) and at IRAK4 [2] (setting [4]) were 98%, 97% and 98%, respectively. Moreover, in test [3], the half-inhibitory concentration (IC50) (as a rule, the concentration needed to halve the response being measured) stood at 118 nM. The Emax in test [3] was determined as 72%.
Take `C[C@H]1CN(C(=O)C2CN(c3cc(F)c([C@H]4CCC(=O)NC4=O)c(F)c3)C2)CCN1[C@H]1CC[C@H](n2cc3cc(NC(=O)c4ccc5cc(C#N)cnn45)c(C(C)(C)O)cc3n2)CC1` [Example 304, 3-cyano-N-(2-((1S,4r)-4-((S)-4-(1-(4-((R)-2,6-dioxopiperidin-3-yl)-3,5-difluorophenyl)azetidine-3-carbonyl)-2-methylpiperazin-1-yl)cyclohexyl)-6-(2-hydroxypropan-2-yl)-2H-indazol-5-yl)pyrrolo[1,2-b]pyridazine-7-carboxamide]: at IRAK4 [1], the DC50 amounted to 65 nM and the Dmax amounted to 97%. On IRAK4 [2] (setting [4]), the Dmax stood at 96%. At IRAK4 [2] (setting [5]), the DC50 came out at 0.5 nM. For the same compound, in test [3], the IC50 stood at 31 nM and the Emax was found to be 88%.
For the compound `C[C@@H]1CN(C2CCN(c3cc(F)c([C@H]4CCC(=O)NC4=O)c(F)c3)CC2)CCN1[C@H]1CC[C@H](n2cc3cc(NC(=O)c4ccc5cc(C#N)cnn45)c(C(C)(C)O)cc3n2)CC1` [Example 301, 3-cyano-N-(2-((1R,4r)-4-((R)-4-(1-(4-((R)-2,6-dioxopiperidin-3-yl)-3,5-difluorophenyl)piperidin-4-yl)-2-methylpiperazin-1-yl)cyclohexyl)-6-(2-hydroxypropan-2-yl)-2H-indazol-5-yl)pyrrolo[1,2-b]pyridazine-7-carboxamide], at IRAK4 [1], the 50% degradation concentration (DC50) was 3.2 nM and the Dmax was 102%. Further, the Dmax at IRAK4 [2] (setting [4]) was found to be 100%. In addition, the DC50 at IRAK4 [2] (setting [5]) came out at 0.7 nM. Besides, in test [3], inhibition was half-maximal at 42 nM (IC50) and the Emax was determined as 96%.
In the case of `CC(C)(O)c1cc2nn([C@H]3C[C@H](N4CCN(C(=O)C5CN(c6cc(F)c([C@H]7CCC(=O)NC7=O)c(F)c6)C5)CC4)C3)cc2cc1NC(=O)c1ccc2cc(C#N)cnn12` [Example 201, 3-cyano-N-(2-((1R,3r)-3-(4-(1-(4-((R)-2,6-dioxopiperidin-3-yl)-3,5-difluorophenyl)azetidine-3-carbonyl)piperazin-1-yl)cyclobutyl)-6-(2-hydroxypropan-2-yl)-2H-indazol-5-yl)pyrrolo[1,2-b]pyridazine-7-carboxamide], on IRAK4 [1], the DC50 came to 11 nM and the Dmax was 99%. On IRAK4 [2] (setting [4]), the Dmax was 96%. In addition, the DC50 at IRAK4 [2] (setting [5]) was found to be 0.8 nM. Besides, in test [3], the IC50 stood at 6.7 nM and the Emax stood at 80%.
With `COc1cc2nn([C@H]3CC[C@H](CN4CCN(C(=O)[C@@H]5CCN(c6ccc(N7CCC(=O)NC7=O)cc6)C5)CC4)CC3)cc2cc1NC(=O)c1cccn(C2CC2)c1=O` [Example 33, 1-cyclopropyl-N-(2-((1R,4r)-4-((4-((R)-1-(4-(2,4-dioxotetrahydropyrimidin-1(2H)-yl)phenyl)pyrrolidine-3-carbonyl)piperazin-1-yl)methyl)cyclohexyl)-6-methoxy-2H-indazol-5-yl)-2-oxo-1,2-dihydropyridine-3-carboxamide], the Dmax at IRAK4 [2] (setting [6]) came out at 81%; at IRAK4 [2] (setting [4]), 99%. For the same compound, the figures for the DC50 at IRAK4 [2] (setting [7]) and on IRAK4 [2] (setting [5]) were 33 nM and 3.1 nM, respectively. In test [3], this compound had an IC50 of 101 nM. Besides, the Emax in test [3] amounted to 53%.
Turning to `C[C@@H]1CN(C(=O)C2CN(c3cc(F)c([C@H]4CCC(=O)NC4=O)c(F)c3)C2)CCN1[C@H]1CC[C@H](n2cc3cc(NC(=O)c4ccc5cc(C#N)cnn45)c(C(C)(C)O)cc3n2)CC1` [Example 298, 3-cyano-N-(2-((1R,4r)-4-((R)-4-(1-(4-((R)-2,6-dioxopiperidin-3-yl)-3,5-difluorophenyl)azetidine-3-carbonyl)-2-methylpiperazin-1-yl)cyclohexyl)-6-(2-hydroxypropan-2-yl)-2H-indazol-5-yl)pyrrolo[1,2-b]pyridazine-7-carboxamide], at IRAK4 [1], the DC50 was 9.8 nM and the Dmax came out at 103%. The Dmax on IRAK4 [2] (setting [4]) stood at 99%. For the same compound, the half-maximal degradation concentration (DC50) on IRAK4 [2] (setting [5]) was found to be 0.3 nM. Further, in test [3], half-maximal inhibition (IC50) was put at 13 nM and the Emax came out at 93%.
As for `COc1cc(N2CC(C(=O)N3CCN([C@H]4CC[C@H](n5cc6cc(NC(=O)c7ccc8cc(C#N)cnn78)c7c(c6n5)OCO7)CC4)CC3)C2)ccc1[C@H]1CCC(=O)NC1=O` [Example 356], at IRAK4 [1], the DC50 came to 14 nM and the Dmax came to 102%. Besides, the Dmax at IRAK4 [2] (setting [4]) came to 98%. Moreover, the DC50 at IRAK4 [2] (setting [5]) came out at 1.3 nM. In test [3], the IC50 is 12 nM and the Emax is 90%.
Regarding `CC(C)(O)c1cc2nn([C@H]3C[C@H](N4CCN(C5CCN(c6cc(F)c([C@H]7CCC(=O)NC7=O)c(F)c6)CC5)CC4)C3)cc2cc1NC(=O)c1ccc2cc(C#N)cnn12` [Example 330, 3-cyano-N-(2-((1R,3r)-3-(4-(1-(4-((R)-2,6-dioxopiperidin-3-yl)-3,5-difluorophenyl)piperidin-4-yl)piperazin-1-yl)cyclobutyl)-6-(2-hydroxypropan-2-yl)-2H-indazol-5-yl)pyrrolo[1,2-b]pyridazine-7-carboxamide], on IRAK4 [1], the 50% degradation concentration (DC50) is 10 nM and the Dmax worked out at 98%. In addition, the Dmax on IRAK4 [2] (setting [4]) was 96%. At IRAK4 [2] (setting [5]), the DC50 was 0.6 nM. Moreover, in test [3], inhibition was half-maximal at 19 nM (IC50) and the Emax was determined as 89%.
Consider `[2H]C([2H])([2H])Oc1cc2nn([C@H]3CC[C@H](N4CCN(C(=O)C5CN(c6cc(F)c(N7CCC(=O)NC7=O)c(F)c6)C5)CC4)CC3)cc2cc1NC(=O)c1cccc(C(F)(F)F)n1` [Example 173, N-(2-((1r,4r)-4-(4-(1-(4-(2,4-dioxotetrahydropyrimidin-1(2H)-yl)-3,5-difluorophenyl)azetidine-3-carbonyl)piperazin-1-yl)cyclohexyl)-6-(methoxy-d3)-2H-indazol-5-yl)-6-(trifluoromethyl)picolinamide], for which the figures for the Dmax at IRAK4 [2] (setting [6]) and on IRAK4 [2] (setting [4]) were 99% and 98%, respectively. In addition, the DC50 at IRAK4 [2] (setting [7]) was found to be 17 nM; at IRAK4 [2] (setting [5]), 1.8 nM. The compound also displayed an IC50 in test [3] of 69 nM. In addition, the Emax in test [3] came to 79%.
As to `CC(C)(O)c1cc2nn([C@H]3CC[C@H](N4CCN(C(=O)C5CN(c6cc(F)c(N7CCC(=O)NC7=O)c(F)c6)C5)CC4)CC3)cc2cc1NC(=O)c1cccc(C(F)(F)F)n1` [Example 114, N-(2-((1r,4r)-4-(4-(1-(4-(2,4-dioxotetrahydropyrimidin-1(2H)-yl)-3,5-difluorophenyl)azetidine-3-carbonyl)piperazin-1-yl)cyclohexyl)-6-(2-hydroxypropan-2-yl)-2H-indazol-5-yl)-6-(trifluoromethyl)picolinamide], the Dmax on IRAK4 [2] (setting [4]) amounted to 96%. For the same compound, the DC50 at IRAK4 [2] (setting [5]) was determined as 1.3 nM. In test [3], it took 53 nM to reach half-maximal inhibition (IC50) and the Emax is 78%.
